This is an account of results in PMC6017563 (Molecules : A Journal of Synthetic Chemistry and Natural …, 2018).

The subject of one data set is testosterone in plasma. The experiment in a line: Testosterone-suppressive effect (plasma testosterone, AUEC, PK-PD model), normal rats. Format: in vivo. As to conditions: Wistar, baseline AUEC subtracted, mean ± SE, n = 5. The source says:
Leuprolide is a GnRH agonist for the treatment of prostate cancer which is a target disease in this study. In the label of the Lucrin depot, this is indicated for palliative treatment of advanced prostatic cancer. Therefore, we used the testosterone concentration as a PD marker of prostate cancer, and plasma testosterone is one of qualified biomarkers used as outcomes in the therapeutic area of oncology. Since most of the PD responses are expressed as a concentration profile of endogenous substances, it is difficult to calculate the value as a general trapezoidal rule. Scheff et al. introduced several methods for calculating AUEC when baselines differ. In this study, drug-specific AUEC was calculated by subtracting the baseline AUEC from the AUEC calculated by a general method, and these drug-specific AUECs were calculated by dividing them into positive AUECs and negative AUECs. […] There were significant differences between positive and negative AUEC in all experimental groups. When absolute values of positive and negative AUEC were compared, negative AUEC was more than three times higher. […] However, there was no significant difference in AUEC between each group on formulation, species and route of administration. This estimation of AUEC means that it could be used as a method for evaluating the formulation.
The PK–PD model, which describes the mechanism of negative feedback of leuprolide, was selected based on leuprolide mechanism characteristics and biomarker characteristics. […] The equations of the baseline model are as follows:(11) dR/dt = kin−kout·R (12) R0, wistar = 4.353 (13) R0,Iar:COP = 4.094 where kin and kout represent the apparent zero-order rate constant for the production of response and the first-order rate constant for the loss of response, respectively. These were estimated by curve fitting with the vehicle-administered group and used as the basic parameters of the drug-effect model described below (Group 2).
For this, several PD models were attempted, and the final PD model decided on was the tolerance model including the feedback compartment.
The plasma concentration of testosterone in plasma samples of each group was quantified using testosterone enzyme-linked immunosorbent assay (ELISA) kits (R&D Systems, Minneapolis, MN, USA). […]
Determination of the testosterone concentration was performed on using the validated Parameter^TM Testosterone Assay (R&D Systems, Minneapolis, MN, USA) and its process. […] The reaction was stopped when 50 μL of stop solution (2N sulfuric acid) was added, and the optical density of each well was measured using SynergyMX (BioTek, Winooski, VT, USA). All plasma samples were measured twice. […]

A further data set is described as follows: in vivo. As to conditions: rat; for half-life: plasma. The method, then: The PK parameters for each experimental group were estimated by one-compartmental analysis using WinNonlin® software (version 7.0, Pharsight®, a Certara™ Company, Princeton, NJ, USA).
For the vehicle-administered groups (Groups 2 and 5), the above dispersion solution was administered instead of the drug (Table 5). Blood samples were directly drawn from the right jugular vein at predetermined time intervals before administration and at 0.25, 1, 2, 4, 8 h, 1, 2, 3, 4, 5, 6, 7, 11, and 14 days after the drug administration. Approximately 300 μL of blood was collected periodically in heparinized tubes via the catheter and was immediately centrifuged at 12,000 g for 5 min and then stored at −80 °C until analysis.
After being shaken with a vortex mixer for 3 min and centrifuged at 10,000× g for 5 min at room temperature, the upper supernatant was transferred to a clean tube and mixed with 20 µL of acetic acid and 900 µL of methylene chloride by vortex-mixing for 3 min and centrifugation at 10,000× g for 5 min at room temperature. The aqueous upper sample aliquots (10 µL) were directly injected into the UPLC–MS/MS system. Analyses were performed with the following UPLC–MS/MS system: Acquity™ UPLC system (Waters Corp., Milford, MA, USA), Mass Spectrometer (Xevo™ TQ-S, Waters Corp.), HALO peptide ES-C18 column (2.1 mm × 100 mm, 2.7 µm particle size, Advanced Material Technology, Wilmington, DE, USA). The mobile phase consisted of 1% acetic acid in water and 1% acetic acid in acetonitrile with gradient at a flow rate of 0.2 mL/min.
The mass spectrometric detection was performed using an electrospray ionization (ESI) source in positive ionization mode. The optimization of MS parameters was accomplished as follows: capillary voltage, 2.9 kV; ion source temperature, 150 °C; desolvation temperature, 350 °C; flow rate of cone gas, 150 L/h; flow rate of desolation gas, 600 L/h; and pressure of argon gas, 4.5 × 10^−3 mbar, respectively. […] Data acquisition and analysis were performed by Masslynx 4.1 software (Waters Corp., Milford, CT, USA).
The PK and PD analysis was performed by non-compartmental and compartment analysis using WinNonlin® software (version 7.0, Pharsight®, a Certara™ Company, Princeton, NJ, USA). The maximum plasma concentration (Cmax) and the time to reach Cmax (Tmax) were measured by visual observation of the individual plasma concentration–time curve. The AUC0–∞ was integrated by the linear trapezoidal rule from time zero to the final measured concentration and was extrapolated from the final measured concentration to infinity. […] The elimination rate constant k is a value used to describe the rate at which the drug is removed from the biological system. The volume of distribution (Vd), which is the theoretical volume in biological fluid, was calculated as CL divided by the k, and the bioavailability (F) was estimated as the AUC0–∞ obtained from SC administration divided by the AUC0–∞, obtained from IV administration. AUEC could be estimated by numerical integration over all segments of the effect-time curve by the trapezoidal rule without extrapolation to infinity. Because the endogenous testosterone was used as a PD marker in this study, the AUEC value subtracted from the baseline AUEC was used for data analysis.
The PK–PD modeling was conducted to describe the PK–PD relationship, and to estimate model parameters using Berkeley Madonna software (ver. 8.3.14). Berkeley Madonna software is a useful tool for modeling and analysis of various biological systems by solving the various differential equations. […] Consequently, the PD model was established in two steps. First, the baseline model was developed by using the baseline profiles of the vehicle-administered control group. Second, the drug-effect model was established based on the parameters that were estimated from the baseline model.

Setting [1] is: Group 1, leuprolide solution 0.1 mg/kg IV.
Where [2] appears, read: Group 3, leuprolide solution 0.1 mg/kg SC.

Broadly, the AUC(0-inf) is the area under the concentration-time curve extrapolated to infinity. High values mean more exposure, low ones less exposure. As a reminder, the AUC(0-t) is exposure summed from dosing to a finite time, without extrapolation to infinity. Read a high AUC(0-t) as high exposure. For orientation: Vd means a proportionality between amount in the body and measured concentration, not a real space. Lower therefore signals confinement near the circulation. By clearance is commonly meant a measure of how efficiently the substance is removed, as volume per time. A high value points to a high capacity for elimination. As a reminder, the Cmax is the maximum level reached in the sampled fluid or tissue. A word on the bioavailability: it is the share of a dose that reaches the circulation, judged against a reference dose that is usually intravenous. A low value points to poor availability. In general, half-life refers to the time in which the quantity being followed falls by half. As to `CCNC(=O)[C@@H]1CCCN1C(=O)[C@H](CCCNC(=N)N)NC(=O)[C@H](CC(C)C)NC(=O)[C@@H](CC(C)C)NC(=O)[C@H](Cc1ccc(O)cc1)NC(=O)[C@H](CO)NC(=O)[C@H](Cc1c[nH]c2ccccc12)NC(=O)[C@H](Cc1c[nH]cn1)NC(=O)[C@@H]1CCC(=O)N1` [leuprolide, Leuprolide (Pyr-His-Trp-Ser-Tyr-D-Leu-Leu-Arg-Pro-NHEt)], in the data set with testosterone in plasma (setting [1]), the “Negative AUEC (drug-specific, testosterone-suppressive effect)” value was −1404.30 ± 287.31 and the “Positive AUEC (drug-specific, testosterone flare-up effect)” value is given as 208.24 ± 52.30. In addition, in the data set on testosterone in plasma (setting [2]), the “Negative AUEC (drug-specific, testosterone-suppressive effect)” value is on record as −775.98 ± 289.13 and the “Positive AUEC (drug-specific, testosterone flare-up effect)” value is 220.87 ± 39.56. In “in vivo” (Wistar, in vivo, iv, 0.1 mg/kg), this compound returned an area under the curve AUC(0-inf) of 106 ± 17.3 ng·h/mL, an AUC(0-t) of 103 ± 16.9 ng·h/mL, a C0 of 97.1 ± 13 ng/mL and a Vd of 0.193 ± 0.0542 L. In addition, the clearance in “in vivo” (Wistar, in vivo, iv, 0.1 mg/kg) was 4.14 mL/min. Further, in the data set “in vivo” (Wistar, in vivo, sc, 0.1 mg/kg), the AUC(0-inf) came out at 53.3 ± 9.96 ng·h/mL, the AUC(0-t) turned out to be 51.2 ± 9.56 ng·h/mL, the maximum concentration (Cmax) was 41.5 ± 4.61 ng/mL and the bioavailability was determined as 50.6%. The half-life in the data set “in vivo” (Wistar, iv, 0.1 mg/kg) was 31.2 ± 6 min. The half-life in “in vivo” (Wistar, sc, 0.1 mg/kg) is 39.6 ± 1.8 min. In addition, in the data set “in vivo” (in vivo), the CL turned out to be 514.46 ± 40.10 mL/h, the “F (bioavailability)” value is given as 50.6% and the Vd was determined as 0.4874 ± 0.02902 L.
